Data set [1] relates to reddening of the skin upon UV-irradiation. Description: UV-erythema test (anti-inflammation) with a trial person. Type of data set: in vivo. Conditions: for Readings of reddening intensities: 15±1 mg gel applied to irradiated skin, lower arm, UV C 150 seconds. The protocol:
The NMN diclofenac salt prepared according to Example 1 was tested in experiments with a trial person in an […] according to Hiramatsu Y et al., Arzneimittel-forschung 1990, vol. 40 (11), 1117, and Wilhelm G, Schweiz. Med. Wochenschrift 1949, vol. 79, 577. The criterion of efficacy was the inhibition of the reddening of the skin upon UV-irradiation during the time of observation.
UV-Erythema Test (Anti-Inflammation):
• Lamp used: UV C lamp (Sylvania, Hg low pressure), 9 W • Irradiated area: circular, […] • Distance from lamp: 10 cm • Time of irradiation: 150 seconds • Site: lower arm, shaven, proximal side • Amount of gel applied to irradiated surface: 15±1 mg 3.5 to 5 minutes after end of irradiation
Readings of reddening intensities at given time intervals (arbitrary units): […]

For a further data set, the system named is rats. The note with it: comparable to nicotinamide, lower than diethylamine; cited from earlier work.

As for `C[n+]1cccc(C(N)=O)c1.O=C([O-])Cc1ccccc1Nc1c(Cl)cccc1Cl` [NMN-Diclofenac, NMN-Salt of Diclofenac], the “Readings of reddening intensities” value in data set [1] (40 minutes after start of irradiation) is on record as 1 arbitrary units; in data set [1] (60 minutes after start of irradiation) it was 0.5 arbitrary units; in data set [1] (90 minutes after start of irradiation), 0 arbitrary units; in data set [1] (120 minutes after start of irradiation), 0.5 arbitrary units; in data set [1] (180 minutes after start of irradiation) it was 0.5 arbitrary units. Besides, the “Activity in UV-erythema test compared with Voltaren-Emulgel” value in data set [1] (comparison with Voltaren-Emulgel (diethylammonium salt of diclofenac)) is listed as “superior activity”.

For the compound `C[n+]1cccc(C(N)=O)c1` [NMN, N(1)-methylnicotinamide], the Toxicity entry in the data set with rats is given as “low toxicity”.

The record behind these values is patent US20080249140A1, “Quaternary 3 -Amido, N-Methylpyridinium Salts as Anti-Inflammatory Agents” (priority 2005, published 2008).
